Source: US20240067693A1, “POLYPEPTIDES AND USES THEREOF” (MEDIMMUNE LIMITED, priority 2020, published 2024)
Numbered stars: 1 amine (or outer) side, 2 acyl side, 3 side chain; on linkers, the order of the positions; unused ones are H or OH. Bridge positions count the residues as written; N and C are the ends. Square brackets hold non-standard residues; d marks the D form. Side chains are listed from the residue outwards. Peptide text beside a SMILES is read from it. * marks the point of attachment. C18 diacid = O=C(O)CCCCCCCCCCCCCCCCC(=O)*; γGlu = O=C(O)[C@H](CCC(=O)[*:2])N[*:1]; αMeF = C[C@](N)(Cc1ccccc1)C(=O)O; Dab = NCC[C@H](N)C(=O)O; Aib = CC(C)(N)C(=O)O

Assays:
[1] = target: T1, human calcitonin receptor (hCTR) (Homo sapiens, UniProt P30988); assay: cAMP production in 1321N1 cells with stable recombinant expression of human calcitonin receptor (hCTR); type: cell-based; details: cAMP, 1321N1 cells, assay buffer with 0.1% BSA; read-out: EC50 (pM) hCTR
T1 construct: expressed in transfected cells
T1 sequence (P30988 25-474): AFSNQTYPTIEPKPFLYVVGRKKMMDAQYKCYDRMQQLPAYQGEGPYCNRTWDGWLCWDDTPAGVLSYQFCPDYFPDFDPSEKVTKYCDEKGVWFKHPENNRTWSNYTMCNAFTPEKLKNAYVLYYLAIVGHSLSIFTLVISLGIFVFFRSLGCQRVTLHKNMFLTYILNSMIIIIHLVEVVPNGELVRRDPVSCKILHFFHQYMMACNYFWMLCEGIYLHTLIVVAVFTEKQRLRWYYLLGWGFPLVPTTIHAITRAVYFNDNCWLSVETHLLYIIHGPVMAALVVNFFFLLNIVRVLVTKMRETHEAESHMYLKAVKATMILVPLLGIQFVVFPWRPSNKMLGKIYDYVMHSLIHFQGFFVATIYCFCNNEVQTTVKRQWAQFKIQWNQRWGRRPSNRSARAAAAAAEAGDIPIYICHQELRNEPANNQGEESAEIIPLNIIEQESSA
Procedure: (§1) The functional activities of lipidated pramlintide analogue peptides, such as cAMP production, were tested in 1321N1 cell line with stable recombinant expression of human calcitonin receptor (hCTR) or human amylin receptor (calcitonin receptor co-expressed with receptor activity modifying protein, RAMP3) (hAMYR3) or HEK cells with stable recombinant expression of rat calcitonin receptor (rat CTR) or rat amylin receptor (calcitonin receptor co-expressed with receptor activity modifying protein, RAMP3) (Rat AMYR3).
(§2) Cryopreserved cell stock was thawed rapidly in a water-bath, suspended in assay buffer (0.1% BSA (Sigma # A3059) in HBSS (Sigma # H8264) with 25 mM HEPES, pH 7.4 and containing 0.5 mM IB MX (Sigma# 17018)) and spun at 240×g for 5 minutes. Cells were re-suspended in assay buffer at a batch-dependent optimized concentration (e.g. hCTR cells at 0.125×10^5 cells/mL, hAMYR3 cells at 0.125×10^5 cells/mL, rat CTR cells at 1x10^5 cells/mL, rat AMYR3 at 2×10^5 cells/mL).
(§3) The test peptide stock was prepared in DMSO and diluted in assay buffer to reach stated concentrations and transferred in duplicates into a 384-black shallow well microtitre assay plate (Corning # 3676). Cells were added to the assay plate, incubated at room temperature for 30 minutes and the cAMP level measured using cAMP dynamic 2 HTRF kit (Cisbio, Cat # 62AM4PEJ), following the two step protocol as per manufacturer's recommendations. The plates were read on an Envision (Perkin Elmer) using excitation wavelength of 320 nm and emission wavelengths of 620nm & 665 nm.
(§4) Data was transformed to % Delta F as described in the manufacturer's guidelines and analyzed as percent activation of maximal amylin or calcitonin effect by 4-parameter logistic fit to determine EC50 values. The selectivity of a peptide to hAMYR vs hCTR is defined as a ratio of EC50 values at the two receptors.

[2] = target: T2, human amylin receptor (calcitonin receptor co-expressed with receptor activity modifying protein, RAMP3) (hAMYR3) (Homo sapiens, UniProt O60896+P30988); assay: cAMP production in 1321N1 cells with stable recombinant expression of human amylin receptor (hAMYR3); type: cell-based; details: for Ratio (selectivity hAMYR vs hCTR, ratio of EC50 values at the two receptors): EC50 hCTR / EC50 hAMYR3; for EC50: cAMP, 1321N1 cells, assay buffer with 0.1% BSA, read-out: EC50 (pM) hAMYR3
T2 construct: expressed in transfected cells
T2 sequence (P30988 25-474): T1 sequence (P30988 25-474)
T2 sequence (O60896 24-148 partner): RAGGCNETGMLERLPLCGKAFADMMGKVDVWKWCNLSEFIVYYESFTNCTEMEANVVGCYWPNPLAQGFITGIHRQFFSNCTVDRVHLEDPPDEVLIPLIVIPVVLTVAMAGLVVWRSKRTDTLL
Procedure: as §1, §2, §3, §4

EC50 [1] [pM] | Ratio (selectivity hAMYR vs hCTR, ratio of EC50 values at the two receptors) [2] | EC50 [2] [pM] | SMILES
10500 | 12 | 873 | CC[C@H](C)[C@H](NC(=O)[C@@H]1CCCN1C(=O)CNC(=O)[C@H](Cc1ccccc1)NC(=O)[C@H](CC(N)=O)NC(=O)[C@H](CCN)NC(=O)[C@H](CO)NC(=O)[C@H](CO)NC(=O)[C@H](Cc1c[nH]cn1)NC(=O)C(C)(C)NC(=O)[C@H](CC(C)C)NC(=O)[C@H](Cc1ccccc1)NC(=O)[C@H](CC(N)=O)NC(=O)[C@H](C)NC(=O)[C@H](CC(C)C)NC(=O)[C@H](CCCNC(=N)N)NC(=O)[C@H](CCC(N)=O)NC(=O)[C@@H](NC(=O)[C@H](C)NC(=O)[C@@H]1CSSC[C@H](NC(=O)[C@H](CCCCN)NC(=O)[C@@H](N)CCCCNC(=O)CC[C@H](NC(=O)CCCCCCCCCCCCCCCCC(=O)O)C(=O)O)C(=O)N[C@@H](CC(N)=O)C(=O)N[C@@H]([C@@H](C)O)C(=O)N[C@@H](C)C(=O)N[C@@H]([C@@H](C)O)C(=O)N1)[C@@H](C)O)C(=O)N[C@@H](CC(C)C)C(=O)N1CCC[C@H]1C(=O)N1CCC[C@H]1C(=O)N[C@H](C(=O)N[C@@H](CCC(=O)O)C(=O)N[C@H](C(=O)NCC(=O)N[C@@H](CO)C(=O)N[C@@H](CC(N)=O)C(=O)N[C@H](C(=O)N[C@@H](Cc1ccc(O)cc1)C(N)=O)[C@@H](C)O)C(C)C)[C@@H](C)O [Peptide 30, K(γE-C18diacid)K[CNTATC]ATQRLANFL(Aib)HSS(Dab)NFGPILPPTEVGSNTY-amide] (H-K([γGlu-C18 diacid])KCNTATCATQRLANFL[Aib]HSS[Dab]NFGPILPPTEVGSNTY-NH2; disulfide 3-8; N-terminus assumed)
1960 | 8 | 249 | CC[C@H](C)[C@H](NC(=O)[C@@H]1CCCN1C(=O)CNC(=O)[C@H](Cc1ccccc1)NC(=O)[C@H](CC(N)=O)NC(=O)C(C)(C)NC(=O)[C@H](CO)NC(=O)[C@H](CO)NC(=O)[C@H](Cc1c[nH]cn1)NC(=O)[C@H](CO)NC(=O)[C@H](CC(C)C)NC(=O)[C@H](Cc1ccccc1)NC(=O)[C@H](CC(N)=O)NC(=O)[C@H](C)NC(=O)[C@H](CC(C)C)NC(=O)[C@H](CCCNC(=N)N)NC(=O)[C@H](CCC(N)=O)NC(=O)[C@@H](NC(=O)[C@H](C)NC(=O)[C@@H]1CSSC[C@H](NC(=O)[C@H](CCCCN)NC(=O)[C@@H](N)CCCCNC(=O)CC[C@H](NC(=O)CCCCCCCCCCCCCCCCC(=O)O)C(=O)O)C(=O)N[C@@H](CC(N)=O)C(=O)N[C@@H]([C@@H](C)O)C(=O)N[C@@H](C)C(=O)N[C@@H]([C@@H](C)O)C(=O)N1)[C@@H](C)O)C(=O)N[C@@H](CC(C)C)C(=O)N1CCC[C@H]1C(=O)N1CCC[C@H]1C(=O)N[C@H](C(=O)N[C@@H](CC(N)=O)C(=O)N[C@H](C(=O)NCC(=O)N[C@@H](CO)C(=O)N[C@@H](CC(N)=O)C(=O)N[C@H](C(=O)N[C@@H](Cc1ccc(O)cc1)C(N)=O)[C@@H](C)O)C(C)C)[C@@H](C)O [Peptide 37, K(γE-C18diacid)K[CNTATC]ATQRLANFLSHSS(Aib)NFGPILPPTNVGSNTY-amide] (H-K([γGlu-C18 diacid])KCNTATCATQRLANFLSHSS[Aib]NFGPILPPTNVGSNTY-NH2; disulfide 3-8)

The remaining lines, values behind:

SMILES | EC50 [1] [pM] | Ratio (selectivity hAMYR vs hCTR, ratio of EC50 values at the two receptors) [2] | EC50 [2] [pM]
CC[C@H](C)[C@H](NC(=O)C(C)(C)NC(=O)CNC(=O)[C@H](Cc1ccccc1)NC(=O)[C@H](CC(N)=O)NC(=O)[C@H](CCN)NC(=O)[C@H](CO)NC(=O)[C@H](CO)NC(=O)[C@H](Cc1c[nH]cn1)NC(=O)[C@@H](NC(=O)[C@H](CC(C)C)NC(=O)[C@H](Cc1ccccc1)NC(=O)[C@H](CC(N)=O)NC(=O)[C@H](C)NC(=O)[C@H](CC(C)C)NC(=O)[C@H](CCCNC(=N)N)NC(=O)[C@H](CCC(N)=O)NC(=O)[C@@H](NC(=O)[C@H](C)NC(=O)[C@@H]1CSSC[C@H](NC(=O)[C@H](CCCCN)NC(=O)[C@@H](N)CCCCNC(=O)CC[C@H](NC(=O)CCCCCCCCCCCCCCCCC(=O)O)C(=O)O)C(=O)N[C@@H](CC(N)=O)C(=O)N[C@@H]([C@@H](C)O)C(=O)N[C@@H](C)C(=O)N[C@@H]([C@@H](C)O)C(=O)N1)[C@@H](C)O)C(C)C)C(=O)N[C@@H](CC(C)C)C(=O)N1CCC[C@H]1C(=O)N1CCC[C@H]1C(=O)N[C@H](C(=O)N[C@@H](CC(N)=O)C(=O)N[C@H](C(=O)NCC(=O)N[C@@H](CO)C(=O)N[C@@H](CC(N)=O)C(=O)N[C@H](C(=O)N[C@@H](Cc1ccc(O)cc1)C(N)=O)[C@@H](C)O)C(C)C)[C@@H](C)O [Peptide 31, K(γE-C18diacid)K[CNTATC]ATQRLANFLVHSS(Dab)NFG(Aib)ILPPTNVGSNTY-amide] (H-K([γGlu-C18 diacid])KCNTATCATQRLANFLVHSS[Dab]NFG[Aib]ILPPTNVGSNTY-NH2; disulfide 3-8; N-terminus assumed) | 1280 | 4 | 349
CC[C@H](C)[C@H](NC(=O)[C@@H]1CCCN1C(=O)CNC(=O)[C@](C)(Cc1ccccc1)NC(=O)[C@H](CC(N)=O)NC(=O)[C@H](CC(N)=O)NC(=O)[C@H](CO)NC(=O)[C@H](CO)NC(=O)[C@H](Cc1c[nH]cn1)NC(=O)[C@@H](NC(=O)[C@H](CC(C)C)NC(=O)[C@H](Cc1ccccc1)NC(=O)[C@H](CCN)NC(=O)[C@H](C)NC(=O)[C@H](CC(C)C)NC(=O)[C@H](CCCNC(=N)N)NC(=O)[C@H](CCC(N)=O)NC(=O)[C@@H](NC(=O)[C@H](C)NC(=O)[C@@H]1CSSC[C@H](NC(=O)[C@H](CCCCN)NC(=O)[C@@H](N)CCCCNC(=O)CC[C@H](NC(=O)CCCCCCCCCCCCCCCCC(=O)O)C(=O)O)C(=O)N[C@@H](CC(N)=O)C(=O)N[C@@H]([C@@H](C)O)C(=O)N[C@@H](C)C(=O)N[C@@H]([C@@H](C)O)C(=O)N1)[C@@H](C)O)C(C)C)C(=O)N[C@@H](CC(C)C)C(=O)N1CCC[C@H]1C(=O)N1CCC[C@H]1C(=O)N[C@H](C(=O)N[C@@H](CCC(=O)O)C(=O)N[C@H](C(=O)NCC(=O)N[C@@H](CO)C(=O)N[C@@H](CC(N)=O)C(=O)N[C@H](C(=O)N[C@@H](Cc1ccc(O)cc1)C(N)=O)[C@@H](C)O)C(C)C)[C@@H](C)O [Peptide 32, K(γE-C18diacid)K[CNTATC]ATQRLA(Dab)FLVHSSNN(αMePhe)GPILPPTEVGSNTY-amide] (H-K([γGlu-C18 diacid])KCNTATCATQRLA[Dab]FLVHSSNN[αMeF]GPILPPTEVGSNTY-NH2; disulfide 3-8; N-terminus assumed) | 11100 | 15 | 742
CC[C@H](C)[C@H](NC(=O)[C@@H]1CCCN1C(=O)CNC(=O)[C@H](Cc1ccccc1)NC(=O)[C@H](CC(N)=O)NC(=O)[C@H](CC(N)=O)NC(=O)[C@H](CO)NC(=O)[C@H](CO)NC(=O)[C@H](Cc1c[nH]cn1)NC(=O)[C@@H](NC(=O)[C@H](CC(C)C)NC(=O)[C@H](Cc1ccccc1)NC(=O)[C@H](CCN)NC(=O)[C@H](C)NC(=O)[C@H](CC(C)C)NC(=O)[C@H](CCCNC(=N)N)NC(=O)[C@H](CCC(N)=O)NC(=O)[C@@H](NC(=O)[C@H](C)NC(=O)[C@@H]1CSSC[C@H](NC(=O)[C@H](CCCCN)NC(=O)[C@@H](N)CCCCNC(=O)CC[C@H](NC(=O)CCCCCCCCCCCCCCCCC(=O)O)C(=O)O)C(=O)N[C@@H](CC(N)=O)C(=O)N[C@@H]([C@@H](C)O)C(=O)N[C@@H](C)C(=O)N[C@@H]([C@@H](C)O)C(=O)N1)[C@@H](C)O)C(C)C)C(=O)N[C@@H](CC(C)C)C(=O)N1CCC[C@H]1C(=O)N1CCC[C@H]1C(=O)N[C@H](C(=O)N[C@@H](CCC(=O)O)C(=O)N[C@H](C(=O)NCC(=O)N[C@@H](CO)C(=O)N[C@@H](CC(N)=O)C(=O)N[C@H](C(=O)N[C@@H](Cc1ccc(O)cc1)C(N)=O)[C@@H](C)O)C(C)C)[C@@H](C)O [Peptide 34] (H-K([γGlu-C18 diacid])KCNTATCATQRLA[Dab]FLVHSSNNFGPILPPTEVGSNTY-NH2; disulfide 3-8; N-terminus assumed) | 17700 | 20 | 877
